According to patent US9663513B2, “Pyrimidine PDE10 inhibitors” (Merck Sharp & Dohme Corp., priority 2012, dated 2017):

Target: human PDE10A2 (Homo sapiens (Human), UniProt Q9Y233)
Test: PDE10 fluorescence polarization (IMAP FP) inhibition assay
Type: biochemical
Settings: human PDE10A2 from transfected AD293 cells; FAM-labeled cAMP 50 nM; apparent inhibition constant; read-out: PDE10A Ki
Outline: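 Cytoplasmic lysate of AD293 cells transiently expressing human PDE10A2 (enzyme level giving 20% conversion) incubated with 50 nM FAM-cAMP in pH 7.2 Tris/MgCl2 buffer, 30 min at room temperature. IMAP binding solution added, FP read after ≥1 h; 10-point 3-fold compound titrations fitted to a four-parameter equation.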

Chain of human PDE10A2 (Q9Y233 267-1055): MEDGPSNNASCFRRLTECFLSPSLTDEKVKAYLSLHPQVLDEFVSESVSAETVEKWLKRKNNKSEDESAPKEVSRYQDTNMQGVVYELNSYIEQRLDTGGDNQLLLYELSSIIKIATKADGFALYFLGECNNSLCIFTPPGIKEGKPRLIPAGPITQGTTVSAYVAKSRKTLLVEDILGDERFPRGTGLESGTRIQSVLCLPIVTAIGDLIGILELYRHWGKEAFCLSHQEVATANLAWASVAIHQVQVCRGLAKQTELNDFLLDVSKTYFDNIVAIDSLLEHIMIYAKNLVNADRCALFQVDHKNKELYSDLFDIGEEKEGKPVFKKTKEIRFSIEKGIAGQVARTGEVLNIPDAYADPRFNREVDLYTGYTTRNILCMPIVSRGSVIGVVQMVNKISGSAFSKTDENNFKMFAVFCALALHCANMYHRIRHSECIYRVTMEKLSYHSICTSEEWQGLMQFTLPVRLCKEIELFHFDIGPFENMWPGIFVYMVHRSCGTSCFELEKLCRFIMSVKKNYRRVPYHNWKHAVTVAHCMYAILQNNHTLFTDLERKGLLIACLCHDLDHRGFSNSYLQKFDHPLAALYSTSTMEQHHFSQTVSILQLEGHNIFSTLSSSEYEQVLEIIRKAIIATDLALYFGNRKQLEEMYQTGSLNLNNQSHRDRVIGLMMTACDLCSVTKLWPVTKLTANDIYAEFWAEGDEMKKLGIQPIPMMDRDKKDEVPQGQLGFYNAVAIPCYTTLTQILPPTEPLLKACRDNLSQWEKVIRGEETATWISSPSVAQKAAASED

Row | Ki | SMILES
1 | 2.2 nM | COC(=O)c1ccc(-c2cnc(C)nc2OC[C@H]2C[C@@H]2c2ccc(C)cn2)cn1 [Example 47, methyl 5-(2-methyl-4-(((1S,2S)-2-(5-methylpyridin-2-yl)cyclopropyl)methoxy)pyrimidin-5-yl)picolinate]
2 | 19.4 nM | CCn1nnc(-c2cnc(C)nc2OC[C@H]2C[C@@H]2c2ccc(OC)cn2)n1 [Example 236, 5-(2-ethyl-2H-tetrazol-5-yl)-4-(((1S,2S)-2-(5-methoxypyridin-2-yl)cyclopropyl)methoxy)-2-methylpyrimidine]
3 | 12 nM | COc1ccc([C@H]2C[C@@H]2COc2nc(C)ncc2-c2cnc(CO)cn2)nc1 [Example 98, (5-(4-(((1S,2S)-2-(5-methoxypyridin-2-yl)cyclopropyl)methoxy)-2-methylpyrimidin-5-yl)pyrazin-2-yl)methanol]
4 | 14 nM | CCOC(=O)c1[nH]nnc1-c1cnc(C)nc1OC[C@H]1C[C@@H]1c1ccc(OC)cn1 [Example 248, ethyl 4-(4-(((1S,2S)-2-(5-methoxypyridin-2-yl)cyclopropyl)methoxy)-2-methylpyrimidin-5-yl)-1H-1,2,3-triazole-5-carboxylate]
5 | 2.95 nM | COc1ccc([C@H]2C[C@@H]2COc2nc(C)ncc2-c2ccc(S(C)(=O)=O)nc2)nc1 [Example 63, 4-(((1S,2S)-2-(5-methoxypyridin-2-yl)cyclopropyl)methoxy)-2-methyl-5-(6-(methylsulfonyl)pyridin-3-yl)pyrimidine]
6 | 1.97 nM | COc1ccc([C@H]2C[C@@H]2COc2nc(C)ncc2-c2ccc(-c3noc(C)n3)cc2)nc1 [Example 251, 3-(4-(4-(((1S,2S)-2-(5-methoxypyridin-2-yl)cyclopropyl)methoxy)-2-methylpyrimidin-5-yl)phenyl)-5-methyl-1,2,4-oxadiazole]
7 | 0.33 nM | COc1ccc([C@H]2C[C@@H]2COc2nc(C)ncc2-c2ccnc(F)c2)nc1 [Example 21, 5-(2-fluoropyridin-4-yl)-4-(((1S,2S)-2-(5-methoxypyridin-2-yl)cyclopropyl)methoxy)-2-methylpyrimidine]
8 | 2.02 nM | Cc1ccc([C@H]2C[C@@H]2COc2nc(C)ncc2-c2cnsc2)nc1 [Example 62, 4-(2-methyl-4-(((1S,2S)-2-(5-methylpyridin-2-yl)cyclopropyl)methoxy)pyrimidin-5-yl)isothiazole]
9 | 22.4 nM | Cc1ccc([C@H]2C[C@@H]2COc2nc(C)ncc2-c2cccoc2=O)nc1 [Example 49, 3-(2-methyl-4-(((1S,2S)-2-(5-methylpyridin-2-yl)cyclopropyl)methoxy)pyrimidin-5-yl)-2H-pyran-2-one]
10 | 19.4 nM | COc1ccc([C@H]2C[C@@H]2COc2nc(C)ncc2C2(F)CCCCC2)nc1 [Example 211, 5-(1-fluorocyclohexyl)-4-(((1S,2S)-2-(5-methoxypyridin-2-yl)cyclopropyl)methoxy)-2-methylpyrimidine]
11 | 1.26 nM | COc1ccc([C@H]2C[C@@H]2COc2nc(C)ncc2-c2cnc(C(=O)O)cn2)nc1 [Example 96, 5-(4-(((1S,2S)-2-(5-methoxypyridin-2-yl)cyclopropyl)methoxy)-2-methylpyrimidin-5-yl)pyrazine-2-carboxylic acid]
12 | 7.7 nM | COc1ccc([C@H]2C[C@@H]2COc2nc(C)ncc2-c2cc(=O)n(C)n2C)nc1 [Example 239, 5-(4-(((1S,2S)-2-(5-methoxypyridin-2-yl)cyclopropyl)methoxy)-2-methylpyrimidin-5-yl)-1,2-dimethyl-1,2-dihydropyrazol-3-one]
13 | 2.03 nM | COc1ccc([C@H]2C[C@@H]2COc2nc(C)ncc2-c2ccc(-c3noc(CO)n3)cc2)nc1 [Example 252, (3-(4-(4-(((1S,2S)-2-(5-methoxypyridin-2-yl)cyclopropyl)methoxy)-2-methylpyrimidin-5-yl)phenyl)-1,2,4-oxadiazol-5-yl)methanol]
14 | 1.47 nM | Cc1ccnc([C@H]2C[C@@H]2COc2nc(C)ncc2-c2cn(C)nc2C(C)O)c1 (stereo partly drawn) [Example 159, 1-(1-methyl-4-(2-methyl-4-(((1S,2S)-2-(4-methylpyridin-2-yl)cyclopropyl)methoxy)pyrimidin-5-yl)-1H-pyrazol-3-yl)ethanol]

Second part, the molecule before the results:

Row | SMILES | Ki
15 | Cc1ccc([C@H]2C[C@@H]2COc2nc(C)ncc2-c2ccccc2C(F)(F)F)nc1 [Example 14, 2-methyl-4-(((1S,2S)-2-(5-methylpyridin-2-yl)cyclopropyl)methoxy)-5-(2-(trifluoromethyl)phenyl)pyrimidine] | 3.1 nM
16 | Cc1ncc(-c2ccc(CO)cc2)c(OC[C@H]2C[C@@H]2c2ccc3ccccc3n2)n1 (single isomer, unassigned) [Example 39] | 0.87 nM
17 | CCc1ccc([C@@H]2C[C@@H]2COc2nc(C)ncc2[C@H]2CC[C@H](O)CC2)nc1 [Example 196, Trans-4-(4-(((1S,2R)-2-(5-ethylpyridin-2-yl)cyclopropyl)methoxy)-2-methylpyrimidin-5-yl)cyclohexanol] | 0.5 nM
18 | Cc1ccc([C@H]2C[C@@H]2COc2nc(C)ncc2-c2c(F)cccc2F)nc1 [Example 6, 5-(2,6-difluorophenyl)-2-methyl-4-(((1S,2S)-2-(5-methylpyridin-2-yl)cyclopropyl)methoxy)pyrimidine] | 1.42 nM
19 | COc1cccc([C@H]2C[C@@H]2COc2nc(C)ncc2C2CCC3(CC2)OCCO3)n1 [Example 200, 4-(((1S,2S)-2-(6-methoxypyridin-2-yl)cyclopropyl)methoxy)-2-methyl-5-(1,4-dioxaspiro[4.5]decan-8-yl)pyrimidine] | 1.61 nM
20 | Cc1ccc([C@H]2C[C@@H]2COc2nc(C)ncc2[C@H]2CC[C@@](C)(O)CC2)nc1 [Example 212, (cis)1-Methyl-4-(2-methyl-4-(((1S,2S)-2-(5-methylpyridin-2-yl)cyclopropyl)methoxy)pyrimidin-5-yl)cyclohexanol] | 12.4 nM
21 | Cc1ncc(-c2cccnc2)c(OC[C@H]2C[C@@H]2c2ccc3ccccc3n2)n1 [Example 155, 2-((1S,2S)-2-((2-methyl-5-(pyridin-3-yl)pyrimidin-4-yloxy)methyl)cyclopropyl)quinoline] | 0.01 nM
22 | CCOc1cccc(-c2cnc(C)nc2OC[C@H]2C[C@@H]2c2ccc3ccccc3n2)c1 (single isomer, unassigned) [Example 41, 2,2,2-trifluoroacetate] | 5.08 nM
23 | Cc1ncc(-c2cnc3ccccn23)c(OC[C@H]2C[C@@H]2c2ccc3ccccc3n2)n1 [Example 133, 2-((1S,2S)-2-((5-(imidazo[1,2-a]pyridin-3-yl)-2-methylpyrimidin-4-yloxy)methyl)cyclopropyl)quinoline] | 0.06 nM
24 | Cc1ncc([C@H]2CC[C@@H](O)CC2)c(OC[C@H]2C[C@H]2c2ccc3ccccc3n2)n1 [Example 193, (1R,4s)-4-(2-methyl-4-(((1S,2R)-2-(quinolin-2-yl)cyclopropyl)methoxy)pyrimidin-5-yl)cyclohexanol] | 0.07 nM
25 | Cc1ccnc([C@H]2C[C@@H]2COc2nc(C)ncc2-c2cn(C)nc2C(C)O)c1 (stereo partly drawn) [Example 160, 1-(1-methyl-4-(2-methyl-4-(((1S,2S)-2-(4-methylpyridin-2-yl)cyclopropyl)methoxy)pyrimidin-5-yl)-1H-pyrazol-3-yl)ethanol] | 2.92 nM
26 | Cc1ncc(-c2cnc3[nH]ncc3c2)c(OC[C@H]2C[C@@H]2c2ccc3ccccc3n2)n1 (single isomer, unassigned) [Example 151] | 0.02 nM
27 | Cc1ncc(-c2ccncc2)c(OC[C@H]2C[C@@H]2c2ccc3ccccc3n2)n1 (single isomer, unassigned) [Example 26] | 0.02 nM
